These results are taken from patent publication US20250026778A1 (TIUMBIO CO., LTD., priority 2021, published 2025).

Molecules are shown by their SMILES. A value given as a limit tells only on which side of the number the result lay.

The target of the first assay is T1, his-galectin-3 (Homo sapiens, UniProt P17931).
T1 construct: purchased Abcam
T1 sequence (P17931 whole entry): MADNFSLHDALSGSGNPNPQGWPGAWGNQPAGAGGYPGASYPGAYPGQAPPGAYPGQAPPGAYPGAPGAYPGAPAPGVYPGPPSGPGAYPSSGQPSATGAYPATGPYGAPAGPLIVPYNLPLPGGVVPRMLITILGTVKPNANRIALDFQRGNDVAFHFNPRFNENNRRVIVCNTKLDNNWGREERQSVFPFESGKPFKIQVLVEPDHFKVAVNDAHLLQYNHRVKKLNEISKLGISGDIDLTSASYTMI
The assay can be described thus: TR-FRET assay (in vitro galectin-3 binding inhibitory activity test). Particulars: Table 1; compound at 20 μM; 60 nM his-galectin-3, 15 nM biotin-ASF; read-out: % Inhibitory activity (at 20 μM). The procedure, abridged: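 Compound is premixed with his-galectin-3 (60 nM final), then biotin-ASF (15 nM), Tb anti-His antibody (2 nM) and streptavidin-d2 (20 nM) are added. After at least 3.5 hours at RT in HEPES/NaCl buffer with Tween 20 and BSA, TR-FRET is read at 615/665 nm. DMSO serves as the uninhibited control, ASF omission as background.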
For the molecule `OC[C@H]1O[C@]2(OCC[C@H]2NCc2ccccc2O)[C@H](O)[C@@H](n2cc(-c3cc(F)c(F)c(F)c3)nn2)[C@H]1O` [Compound A125, (4R,5S,7R,8R,9S,10R)-4-((2-hydroxybenzyl)amino)-7-(hydroxymethyl)-9-(4-(3,4,5-trifluorophenyl)-1H-1,2,3-triazol-1-yl)-1,6-dioxaspiro[4.5]decane-8,10-diol], the inhibition at 20 µM was < 25%. Take `OC[C@H]1O[C@]2(OCC[C@H]2NCc2cc(Cl)ccc2O)[C@H](O)[C@@H](n2cc(-c3cc(F)c(F)c(F)c3)nn2)[C@H]1O` [Compound A126, (4R,5S,7R,8R,9S,10R)-4-((5-chloro-2-hydroxybenzyl)amino)-7-(hydroxymethyl)-9-(4-(3,4,5-trifluorophenyl)-1H-1,2,3-triazol-1-yl)-1,6-dioxaspiro[4.5]decane-8,10-diol]: the inhibition at 20 µM was in the range of 25 to 50%.

As for `OC[C@H]1O[C@]2(OCC[C@H]2NCc2cccc(Cl)c2O)[C@H](O)[C@@H](n2cc(-c3cc(F)c(F)c(F)c3)nn2)[C@H]1O` [Compound A127, (4R,5S,7R,8R,9S,10R)-4-((3-chloro-2-hydroxybenzyl)amino)-7-(hydroxymethyl)-9-(4-(3,4,5-trifluorophenyl)-1H-1,2,3-triazol-1-yl)-1,6-dioxaspiro[4.5]decane-8,10-diol], the inhibition at 20 µM is 50 to 75%. Still for that read-out and setting: the figure for `OC[C@H]1O[C@]2(OCC[C@H]2NCc2ccc(Cl)o2)[C@H](O)[C@@H](n2cc(-c3cc(F)c(F)c(F)c3)nn2)[C@H]1O` [Compound A128, (4R,5S,7R,8R,9S,10R)-4-(((5-chlorofuran-2-yl)methyl)amino)-7-(hydroxymethyl)-9-(4-(3,4,5-trifluorophenyl)-1H-1,2,3-triazol-1-yl)-1,6-dioxaspiro[4.5]decane-8,10-diol] is 50 to 75%; for `O=C(N[C@@H]1CCO[C@]12O[C@H](CO)[C@H](O)[C@H](n1cc(-c3cc(F)c(F)c(F)c3)nn1)[C@H]2O)c1ccc2ccccc2c1` [Compound A129, N-((4R,5S,7R,8R,9S,10R)-8,10-dihydroxy-7-(hydroxymethyl)-9-(4-(3,4,5-trifluorophenyl)-1H-1,2,3-triazol-1-yl)-1,6-dioxaspiro[4.5]decan-4-yl)-2-naphthamide] it is 50 to 75%. As for `O=C(N[C@@H]1CCO[C@]12O[C@H](CO)[C@H](O)[C@H](n1cc(-c3cc(F)c(F)c(F)c3)nn1)[C@H]2O)c1cccc(Oc2ccccc2)c1` [Compound A130, N-((4R,5S,7R,8R,9S,10R)-8,10-dihydroxy-7-(hydroxymethyl)-9-(4-(3,4,5-trifluorophenyl)-1H-1,2,3-triazol-1-yl)-1,6-dioxaspiro[4.5]decan-4-yl)-3-phenoxybenzamide], the inhibition at 20 µM lay in the range of 50 to 75%. With `O=C(N[C@@H]1CCO[C@]12O[C@H](CO)[C@H](O)[C@H](n1cc(-c3cc(F)c(F)c(F)c3)nn1)[C@H]2O)c1ccc(-c2ccccc2)cc1` [Compound A131, N-((4R,5S,7R,8R,9S,10R)-8,10-dihydroxy-7-(hydroxymethyl)-9-(4-(3,4,5-trifluorophenyl)-1H-1,2,3-triazol-1-yl)-1,6-dioxaspiro[4.5]decan-4-yl)-[1.1′ biphenyl]-4-carboxamide], the inhibition at 20 µM is < 25%. Same read-out and setting: the figure for `COc1cccc(CN[C@@H]2CCO[C@]23O[C@H](CO)[C@H](O)[C@H](n2cc(-c4cc(F)c(F)c(F)c4)nn2)[C@H]3O)c1O` [Compound A132, (4R,5S,7R,8R,9S,10R)-4-((2,3-hydroxy-3-methoxybenzyl)amino)-7-(hydroxymethyl)-9-(4-(3,4,5-trifluorophenyl)-1H-1,2,3-triazol-1-yl)-1,6-dioxaspiro[4.5]decane-8,10-diol] is 25 to 50%. On the same count and under the same terms, then `O=C(N[C@@H]1CCO[C@]12O[C@H](CO)[C@H](O)[C@H](n1cc(-c3cc(F)c(F)c(F)c3)nn1)[C@H]2O)c1cccc2ccccc12` [Compound A133, N-((4R,5S,7R,8R,9S,10R)-8,10-dihydroxy-7-(hydroxymethyl)-9-(4-(3,4,5-trifluorophenyl)-1H-1,2,3-triazol-1-yl)-1,6-dioxaspiro[4.5]decan-4-yl)-1-naphthamide], with > 75%; and `O=C(N[C@@H]1CCO[C@]12O[C@H](CO)[C@H](O)[C@H](n1cc(-c3cc(F)c(F)c(F)c3)nn1)[C@H]2O)c1cccc(-c2ccccc2)c1` [Compound A134, N-((4R,5S,7R,8R,9S,10R)-8,10-dihydroxy-7-(hydroxymethyl)-9-(4-(3,4,5-trifluorophenyl)-1H-1,2,3-triazol-1-yl)-1,6-dioxaspiro[4.5]decan-4-yl)-[1.1′ biphenyl]-3-carboxamide], with > 75%. With `O=C(Cc1ccc(-c2ccccc2)cc1)N[C@@H]1CCO[C@]12O[C@H](CO)[C@H](O)[C@H](n1cc(-c3cc(F)c(F)c(F)c3)nn1)[C@H]2O` [Compound A135, 2-([1,1′-biphenyl]-4-yl)-N-((4R,5S,7R,8R,9S,10R)-8,10-dihydroxy-7-(hydroxymethyl)-9-(4-(3,4,5-trifluorophenyl)-1H-1,2,3-triazol-1-yl)-1,6-dioxaspiro[4.5]decan-4-yl)acetamide], the inhibition at 20 µM is < 25%. Consider `O=C(Cc1cccc(C(F)(F)F)c1)N[C@@H]1CCO[C@]12O[C@H](CO)[C@H](O)[C@H](n1cc(-c3cc(F)c(F)c(F)c3)nn1)[C@H]2O` [Compound A136, N-((4R,5S,7R,8R,9S,10R)-8,10-dihydroxy-7-(hydroxymethyl)-9-(4-(3,4,5-trifluorophenyl)-1H-1,2,3-triazol-1-yl)-1,6-dioxaspiro[4.5]decan-4-yl)-2-(3-(trifluoromethyl)phenyl)acetamide], for which the inhibition at 20 µM was > 75%. `CC(C(=O)N[C@@H]1CCO[C@]12O[C@H](CO)[C@H](O)[C@H](n1cc(-c3cc(F)c(F)c(F)c3)nn1)[C@H]2O)c1ccccc1` (stereo partly drawn) [Compound A137, N-((4R,5S,7R,8R,9S,10R)-8,10-dihydroxy-7-(hydroxymethyl)-9-(4-(3,4,5-trifluorophenyl)-1H-1,2,3-triazol-1-yl)-1,6-dioxaspiro[4.5]decan-4-yl)-2-phenylpropanamide]: the inhibition at 20 µM lay in the range of 50 to 75%. For the molecule `O=C(c1ccccc1)N1CCC[C@]2(C1)O[C@H](CO)[C@H](O)[C@H](n1cc(-c3cc(F)c(F)c(F)c3)nn1)[C@H]2O` [Compound A138, ((2R,3R,4S,5R,6R)-3,5-dihydroxy-2-(hydroxymethyl)-4-(4-(3,4,5-trifluorophenyl)-1H-1,2,3-triazol-1-yl)-1-oxa-8-azaspiro[5.5]undecan-8-yl)(phenyl)methanone], the inhibition at 20 µM is < 25%. The same measure, in the same setting: the figure for `COc1cccc(CC(=O)N2CCC[C@]3(C2)O[C@H](CO)[C@H](O)[C@H](n2cc(-c4cc(F)c(F)c(F)c4)nn2)[C@H]3O)c1` [Compound A140, 1-((2R,3R,4S,5R,6R)-3,5-dihydroxy-2-(hydroxymethyl)-4-(4-(3,4,5-trifluorophenyl)-1H-1,2,3-triazol-1-yl)-1-oxa-8-azaspiro[5.5]undecan-8-yl)-2-(3-methoxyphenyl)ethanone] is < 25%.

Staying with this assay, now noted: Table 3, found values; compound at 20 μM; 60 nM his-galectin-3, 15 nM biotin-ASF; read-out: % Inhibitory activity (at 20 μM).
As for `O=C(N[C@@H]1CCO[C@]12O[C@H](CO)[C@H](O)[C@H](n1cc(-c3cc(F)c(F)c(F)c3)nn1)[C@H]2O)c1cccc(Oc2ccccc2)c1` [Compound A130, N-((4R,5S,7R,8R,9S,10R)-8,10-dihydroxy-7-(hydroxymethyl)-9-(4-(3,4,5-trifluorophenyl)-1H-1,2,3-triazol-1-yl)-1,6-dioxaspiro[4.5]decan-4-yl)-3-phenoxybenzamide], the inhibition at 20 µM stood at 56.6%.

Still in this assay, the particulars now being: read-out: % Inhibitory activity (at 20 μM), Table 1; compound at 20 μM; 60 nM his-galectin-3, 15 nM biotin-ASF.
Turning to `O=C(Cc1cccc(Cl)c1)N1CCC[C@]2(C1)O[C@H](CO)[C@H](O)[C@H](n1cc(-c3cc(F)c(F)c(F)c3)nn1)[C@H]2O` [Compound A139, 2-(3-chlorophenyl)-1-((2R,3R,4S,5R,6R)-3,5-dihydroxy-2-(hydroxymethyl)-4-(4-(3,4,5-trifluorophenyl)-1H-1,2,3-triazol-1-yl)-1-oxa-8-azaspiro[5.5]undecan-8-yl)ethanone], the inhibition at 20 µM was < 25%.
